Tests used:
Type in all cases: cell-based
Δtlp3,4 mutant = tested on: Δtlp3,4 mutant
Δtlp2,4 mutant = conditions: P < 0.05
Δtlp2,3,4 triple mutant = conditions: P < 0.05

NCCCC[C@H](N)C(=O)O [Lysine]
cell migration toward ligand, Δtlp3,4 mutant (Δtlp3,4 mutant): no change in migration | cell migration toward ligand decreased, Δtlp2,4 mutant (Δtlp2,4 mutant): 1.1 log | increase in cell migration, Δtlp2,3,4 triple mutant (Δtlp2,3,4 triple mutant): 1.5 log

Reference: paper PMC9769880, “Diverse Sensory Repertoire of Paralogous Chemoreceptors Tlp2, Tlp3, and Tlp4 in Campylobacter jejuni” (Microbiology Spectrum, 2022)
